Source: PMC11879040, “Advancing systemic toxicity risk assessment: Evaluation of a NAM-based toolbox approach” (Toxicological Sciences, 2024)
Like-named read-outs stand apart in the source and are kept apart here.

Experiments:
[1] = system: Potassium Voltage-Gated Channel Kv non-selective, KCNQ1 (r); test: IPP KCNQ1 binding (antagonist radioligand); design: species or system rat; conditions: IPP screening at 100 uM; control α-dendrotoxin
[2] = system: Gamma-aminobutyric acid receptor subunit alpha-1 BZD site, GABRA1A (r); format: binding, rat
[3] = system: Sodium channel protein type 5 subunit alpha (site 2), SCN5A (r); format: binding, rat; conditions: IPP screening at 100 uM; control veratridine
[4] = biological target: T1, Adenosine receptor A2a, ADORA2A (h) (Homo sapiens, UniProt P29274); test: IPP ADORA2A binding (agonist radioligand); conditions: IPP screening at 100 uM; control NECA
T1 construct: purchased Eurofins Cerep (SafetyScreen44-based IPP panel)

[5] = biological target: T2, Estrogen receptor, ER1 (h) (Homo sapiens, UniProt P03372); test: IPP ER1 coactivator recruitment (agonist); format: biochemical; conditions: 100 uM, estriol, * denotes assay interference (2-Amino-6-chloro-4-nitrophenol, HC Red 3)
T2 construct: purchased Eurofins Cerep (SafetyScreen44-based IPP panel)
T2 sequence (P03372 1-595): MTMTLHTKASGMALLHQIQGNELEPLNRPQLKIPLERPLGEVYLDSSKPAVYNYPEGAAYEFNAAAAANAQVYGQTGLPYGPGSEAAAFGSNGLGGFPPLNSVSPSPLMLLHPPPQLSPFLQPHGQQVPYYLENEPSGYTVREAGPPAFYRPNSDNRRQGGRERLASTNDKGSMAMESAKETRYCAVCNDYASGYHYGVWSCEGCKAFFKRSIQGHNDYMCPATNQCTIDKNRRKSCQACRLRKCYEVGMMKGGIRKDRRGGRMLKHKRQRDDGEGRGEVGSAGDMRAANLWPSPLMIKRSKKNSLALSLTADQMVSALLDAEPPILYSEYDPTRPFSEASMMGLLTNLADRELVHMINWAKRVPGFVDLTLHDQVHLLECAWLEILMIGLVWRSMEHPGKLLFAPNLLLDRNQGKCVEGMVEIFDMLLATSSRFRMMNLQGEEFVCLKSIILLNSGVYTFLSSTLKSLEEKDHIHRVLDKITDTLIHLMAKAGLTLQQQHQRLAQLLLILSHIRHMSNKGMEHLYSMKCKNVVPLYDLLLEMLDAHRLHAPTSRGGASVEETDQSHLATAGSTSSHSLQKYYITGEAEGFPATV

[6] = biological target: T2, Estrogen receptor, ER1 (h); test: IPP ER1 coactivator recruitment (antagonist); format: biochemical; conditions: 100 uM, estriol, * denotes assay interference (2-Amino-6-chloro-4-nitrophenol, HC Red 3)
[7] = system: Thyroid hormone receptor alpha, THRA (h); test: IPP THRA coactivator recruitment (agonist); format: biochemical, human; conditions: 100 uM; agonist; T3; * denotes assay interference (2-Amino-6-chloro-4-nitrophenol, HC Red 3)
[8] = system: Tubulin (r); test: IPP Tubulin binding; design: species or system rat; conditions: 100 uM; ligand/control Colchicine
[9] = system: HepG2 cells; test: Cell stress panel (CSP), 24 h, 8 concentrations, BIFROST global PoD; format: cell-based; conditions: HepG2; cell stress panel PoD
Description: Compounds were tested using the previously developed cell stress panel ([Hatherell et al. 2020]) and the expanded biomarker panel outlined in Middleton et al. HepG2 cells were treated with all compounds for 24 h across 8 concentrations prior to biomarker analysis. The same plate layout and number of replicates (3 biological and 2 technical) were used as previously for each assay within the panel.

[10] = system: HepG2 cells; test: High-throughput transcriptomics (HTTr, TempO-Seq), HepG2, 24 h; format: cell-based, human; conditions: HepG2; for pod_httr_bifrost PoD: HTTr BIFROST PoD; for podl_path_minbmd PoD: HTTr minimum pathway BMD(L)
Description: (§1) HepG2, HepaRG, and MCF7 cells were treated with each compound for 24 h across a dose range of 7 concentrations and lysed using TempO-Seq lysis buffer (BioSpyder Technologies, proprietary kit, see [Middleton et al. 2022] for method details). Sequencing was performed using TempO-Seq (BioClavis) version 2 of the human whole transcriptome panel and analyzed as described previously in Middleton et al.

[11] = system: HepaRG cells; test: High-throughput transcriptomics (HTTr, TempO-Seq), HepaRG, 24 h; format: cell-based, human; conditions: HepaRG; for pod_httr_bifrost PoD: HTTr BIFROST PoD; for podl_path_minbmd PoD: HTTr minimum pathway BMD(L)
Description: as §1

[12] = system: MCF7 cells; test: High-throughput transcriptomics (HTTr, TempO-Seq), MCF7, 24 h; format: cell-based, human; conditions: MCF-7; for pod_httr_bifrost PoD: HTTr BIFROST PoD; for podl_path_minbmd PoD: HTTr minimum pathway BMD(L)
Description: as §1

[13] = system: Glutamate receptor ionotropic NMDA 1 non-selective, GRIN1 (r)
[14] = biological target: Potassium voltage-gated channel subfamily H member 2 hERG, KCNH2 (h) (Homo sapiens, UniProt Q12809); conditions: human, 100 µM
[15] = human
[16] = system: rat; conditions: cited from earlier work; for PoD (NOAEL): rat, ref ToxRefDB/Paul-Friedman et al. (2020)/regulatory opinions
[17] = system: 63 targets with known safety liabilities; test: In vitro pharmacological profiling (IPP) panel, screening at 10 or 100 µM and dose response, minimum IC50/AC50; format: biochemical; conditions: lowest AC50 across IPP panel (systemic targets); cell_type -; read-out: ipp_lowest_ac50_systemic PoD
[18] = PBK level L2; single value or median; ref [2],[4],[6],[7],[8],[10],[11],[15],[18],[27],[34]; cited from earlier work
[19] = PBK level L2; taken or scaled from references (median where several); ref [6],[7],[10],[19]; cited from earlier work
[20] = skin penetration (PBK input); conditions: PBK level L2, [28] (ibuprofen)
[21] = cited from earlier work
[22] = IPP screening at 100 uM, control diazepam
[23] = IPP screening at 100 uM, control CGS 19755
[24] = neurological effects, ref SCCS/1582/16
[25] = optimised based on [21] (glutaraldehyde), [23] (HCRed3)
[26] = IV bolus 391 mg, healthy 2 male 3 female, calibration, ref Pentikäinen et al. 1979
[27] = IV infusion 195 mg, 4 healthy male, validation, ref Tucker et al. 1981
[28] = Oral 391 mg (IR: Tablet), fasted, healthy 2 male 3 female, calibration, ref Pentikäinen et al. 1979
[29] = Oral 391 mg (IR: Tablet), fed, healthy 12 male 4 female, validation, ref Tucker et al. 1981

Potassium voltage-gated channel subfamily H member 2 hERG, KCNH2 (h), sequence (Q12809 whole entry): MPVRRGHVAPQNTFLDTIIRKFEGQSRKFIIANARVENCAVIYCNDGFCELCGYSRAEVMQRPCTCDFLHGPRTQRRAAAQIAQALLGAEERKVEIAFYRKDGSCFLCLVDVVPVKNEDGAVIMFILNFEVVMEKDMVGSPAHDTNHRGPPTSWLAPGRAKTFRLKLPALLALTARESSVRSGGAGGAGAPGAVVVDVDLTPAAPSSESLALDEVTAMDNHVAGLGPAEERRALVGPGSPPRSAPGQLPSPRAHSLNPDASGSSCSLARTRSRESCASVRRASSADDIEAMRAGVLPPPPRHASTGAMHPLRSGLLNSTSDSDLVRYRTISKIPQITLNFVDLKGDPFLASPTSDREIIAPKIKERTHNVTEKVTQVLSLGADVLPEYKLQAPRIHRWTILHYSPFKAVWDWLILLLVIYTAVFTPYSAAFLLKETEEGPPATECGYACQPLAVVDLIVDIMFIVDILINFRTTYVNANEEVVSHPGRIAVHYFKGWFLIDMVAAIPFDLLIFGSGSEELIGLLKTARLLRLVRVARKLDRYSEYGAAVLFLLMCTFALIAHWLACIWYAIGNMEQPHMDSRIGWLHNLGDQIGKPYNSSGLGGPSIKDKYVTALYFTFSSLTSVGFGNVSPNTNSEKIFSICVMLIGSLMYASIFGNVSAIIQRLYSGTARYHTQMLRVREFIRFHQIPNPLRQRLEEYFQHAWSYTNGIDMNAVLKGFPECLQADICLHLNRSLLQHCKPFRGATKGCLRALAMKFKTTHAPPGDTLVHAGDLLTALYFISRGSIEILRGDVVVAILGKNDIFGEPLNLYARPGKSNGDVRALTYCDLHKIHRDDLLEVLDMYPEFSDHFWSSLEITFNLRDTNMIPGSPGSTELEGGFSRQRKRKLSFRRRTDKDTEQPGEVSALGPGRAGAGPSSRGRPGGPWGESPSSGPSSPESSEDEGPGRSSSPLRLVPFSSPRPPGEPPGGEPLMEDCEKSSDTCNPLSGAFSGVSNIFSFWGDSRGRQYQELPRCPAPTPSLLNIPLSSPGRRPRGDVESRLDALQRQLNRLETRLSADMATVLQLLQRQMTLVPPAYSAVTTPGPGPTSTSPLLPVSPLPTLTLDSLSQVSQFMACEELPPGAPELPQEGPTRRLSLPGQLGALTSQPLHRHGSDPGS
T1 sequence (P29274 whole entry): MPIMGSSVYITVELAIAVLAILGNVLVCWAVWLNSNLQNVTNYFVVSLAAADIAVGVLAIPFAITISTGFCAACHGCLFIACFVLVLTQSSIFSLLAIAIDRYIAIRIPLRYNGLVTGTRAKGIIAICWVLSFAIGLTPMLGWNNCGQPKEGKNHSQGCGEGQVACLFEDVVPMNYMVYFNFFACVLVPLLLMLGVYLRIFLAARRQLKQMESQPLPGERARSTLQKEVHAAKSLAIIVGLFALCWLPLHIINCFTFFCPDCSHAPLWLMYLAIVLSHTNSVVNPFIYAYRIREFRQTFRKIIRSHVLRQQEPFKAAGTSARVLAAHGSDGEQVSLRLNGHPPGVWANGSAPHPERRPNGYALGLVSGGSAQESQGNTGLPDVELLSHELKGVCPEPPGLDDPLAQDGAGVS

Row | SMILES | Specific binding [1] [%] | Specific binding [2, 22] [%] | Specific binding [3] [%] | Specific binding [4] [%] | IPP screening %, Coactivator recruitment [5] [%] | IPP screening %, Coactivator recruitment [6] [%] | IPP screening %, Coactivator recruitment [7] [%] | IPP screening %, Specific binding [8] [%] | pod_cell_stress PoD [9] [µM] | pod_httr_bifrost PoD [10] [µM] | podl_path_minbmd PoD [10] [µM] | pod_httr_bifrost PoD [11] [µM] | podl_path_minbmd PoD [11] [µM] | pod_httr_bifrost PoD [12] [µM] | podl_path_minbmd PoD [12] [µM] | Specific binding [13, 23] [%] | IPP screening %, Specific binding [14] [%] | risk [15] | AC50 [17] [µM] | PoD (NOAEL) ([16]; 90 day oral rat study) [mg/kg bw/day] | further results
1 | CCCCCCC(O)CO (stereo not drawn) [1,2-Octanediol, Octane-1,2-diol] | -4.4 | 10.0 | 26.3 | 1.4 | 0.0 | 0.0 | 2.0 | 3.0 | 272.296 | 108.846 | 1029.23 | 103.989 | 259.271 | 48.9281 | 968.894 | 3.1 | 14.6 | 0 | – | – | PoD (NOAEL) ([16]; developmental): 150 mg/kg bw/day
2 | Cc1c(O)cccc1O [2-methyl-1,3-benzenediol, 2-Methylbenzene-1,3-diol] | 27.5 | 6.5 | 41.6 | 8.4 | 13.0 | -6.0 | 2.0 | -14.0 | 8.64 | 0.2182 | 169.35 | 22.9719 | 117.879 | 1.165 | 52.4925 | 1.8 | 3.3 | 0 | 0.9 | 100 | NOAEL ([16]; 90-day study, body weight changes to rats, ref [3,4]): 100 mg/kg bw/day; NOAEL for teratogenicity and maternal toxicity ([16]; ref [3,4]): 400 mg/kg bw/day
3 | CCOc1cc(CCC(C)=O)ccc1O [Ethylzingerone, 4-(3-Ethoxy-4-hydroxyphenyl)butan-2-one] | 0.7 | -2.5 | 8.8 | 4.5 | 2.0 | -14.0 | 4.0 | 16.0 | 17.0917 | 11.971 | 445.376 | 29.321 | 291.446 | 11.821 | 119.724 | -16.9 | 0.2 | 0 | 1.39 | 100 | local NOAEL ([16]; 90 day oral rat study, ref SCCS/1582/16): 300 mkd; BMD [16, 24]: 220 mkd; BMDL [16, 24]: 110 mkd
4 | Nc1ccc(NCCO)c([N+](=O)[O-])c1 [HCRed3] | – | – | – | – | – | – | – | – | – | – | – | – | – | – | – | – | – | – | – | – | Fup [18]: 62.28%; Intrinsic Liver Clearance [19]: 248.1 L/h; Diffusivity Dermis [20, 25]: 1.00E-08 cm^2/s; Diffusivity Stratum Corneum [20, 25]: 1.00E-08 cm^2/s; Diffusivity Viable Epidermis [20, 25]: 1.00E-10 cm^2/s; Partition Coefficient Stratum Corneum/Water ([20]; optimised based on [21] (glutaraldehyde), [23] (HCRed3), no reference printed (DEET)): 1.50; Diffusivity Vehicle ([20]; optimised based on [23] (HCRed3)): 1.00E-05 cm^2/s
5 | CN(C)C(=N)N=C(N)N [Metformin, N,N-Dimethyltriimidodicarbonic diamide] | – | – | – | -1.4 | – | – | 4.0 | 14.0 | 133.042 | 107.11 | 592.816 | 80.527 | 386.965 | 45.2765 | 722.808 | – | – | 1 | – | – | Specific binding [2]: 0.6%; Specific binding [13]: -9.9%; Reported AUC0-t [21, 26]: 23529 ng·h/mL; Reported cmax [21, 26]: 47.318 µg/mL; Reported tmax [21, 26]: 4.2 min; Reported AUC0-t [21, 27]: 8905.5 ng·h/mL; Reported cmax [21, 27]: 8.93 µg/mL; Reported tmax [21, 27]: 0 min; Reported AUC0-t [21, 28]: 10696 ng·h/mL; Reported cmax [21, 28]: 3.1615 µg/mL; Reported tmax [21, 28]: 43.11 min; Reported AUC0-t [21, 29]: 11234 ng·h/mL; Reported cmax [21, 29]: 2 µg/mL; Reported tmax [21, 29]: 104 min
